Results as given in the supplement of paper PMC10307832.

How the values were obtained:
Assay in all cases: relative viability (nuclei count vs DMSO), 5 days (fraction); higher = more cells survive
[1] = compound: CC1=C(C(=O)N2C=CSC2=N1)CCN3CCC(=C(C4=CC=CC=C4)C5=CC=C(C=C5)F)CC3 + Cc1nc(NC(=O)N2CCC[C@H]2C(N)=O)sc1-c1ccnc(C(C)(C)C(F)(F)F)c1 [Alpelisib] (partner 2 µM)
Procedure, shortened: (§1)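 For relative viability, nuclei counts in treated wells were divided by those in vehicle wells. Lung cancer cell lines had been pin-tool dosed in 1536-well plates the day after seeding and cultured for 5 days, then fixed and stained in one step (final 0.05% Triton X-100, 1% formaldehyde, 1 ug/ml Hoechst) and imaged at 4×. Doses were one drug alone or a fixed anchor-drug dose plus five library-drug doses (not always all listed) in √10 steps, and values are duplicate-plate medians.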

[2] = compound: CC1=C(C(=O)N2C=CSC2=N1)CCN3CCC(=C(C4=CC=CC=C4)C5=CC=C(C=C5)F)CC3 + CC(C)C[C@H](NC(=O)[C@H](Cc1ccccc1)NC(=O)c1cnccn1)B(O)O [Bortezomib] (partner 0.002 µM)
Procedure, shortened: as §1

[3] = compound: CC1=C(C(=O)N2C=CSC2=N1)CCN3CCC(=C(C4=CC=CC=C4)C5=CC=C(C=C5)F)CC3 + O=C(c1cc(Cc2n[nH]c(=O)c3ccccc23)ccc1F)N1CCN(C(=O)C2CC2)CC1 [Olaparib] (partner 8 µM)
Procedure, shortened: as §1

[4] = compound: CC1=C(C(=O)N2C=CSC2=N1)CCN3CCC(=C(C4=CC=CC=C4)C5=CC=C(C=C5)F)CC3 + Nc1nc2[nH]cc(CCc3ccc(C(=O)N[C@@H](CCC(=O)O)C(=O)O)cc3)c2c(=O)[nH]1 [Pemetrexed] (partner 0.2 µM)
Procedure, shortened: as §1

Cell Line | relative viability ([1]; first compound 0.08 µM) | relative viability ([1]; first compound 0.8 µM) | relative viability ([1]; first compound 2.53 µM) | relative viability ([1]; first compound 8 µM) | relative viability ([2]; first compound 0.08 µM) | relative viability ([2]; first compound 0.8 µM) | relative viability ([2]; first compound 2.53 µM) | relative viability ([2]; first compound 8 µM) | relative viability ([3]; first compound 0.08 µM) | relative viability ([3]; first compound 0.253 µM) | relative viability ([3]; first compound 0.8 µM) | relative viability ([3]; first compound 2.53 µM) | relative viability ([3]; first compound 8 µM) | relative viability ([4]; first compound 0.08 µM) | relative viability ([4]; first compound 0.253 µM) | relative viability ([4]; first compound 0.8 µM) | relative viability ([4]; first compound 2.53 µM) | relative viability ([4]; first compound 8 µM) | relative viability ([1]; first compound 0.253 µM) | relative viability ([2]; first compound 0.253 µM)
NCI-H1993 | 0.683 | 0.694 | 0.699 | 0.669 | 0.834 | 0.919 | 1.5 | 0.987 | 1 | 0.944 | 1.01 | 1.3 | 0.838 | 0.617 | 0.622 | 0.645 | 0.671 | 0.468 | – | –
NCI-H2009 | 1.26 | 1.2 | 1.19 | 1.08 | 1.25 | 0.986 | 1.03 | 0.88 | 0.716 | 0.706 | 0.654 | 0.721 | 0.581 | 1.04 | 1.1 | 1.04 | 1.12 | 0.938 | 1.16 | 1.11
NCI-H2023 | 0.579 | 0.549 | 0.697 | 0.584 | 1.2 | 0.917 | 1.08 | 0.736 | 0.563 | 0.454 | 0.509 | 0.607 | 0.394 | 0.288 | 0.199 | 0.239 | 0.333 | 0.246 | 0.587 | 0.905
NCI-H2085 | 0.869 | 0.928 | 0.943 | 0.773 | 1.04 | 1.07 | 1.07 | 0.878 | 0.805 | 0.776 | 0.807 | 0.783 | 0.735 | 0.966 | 0.964 | 0.759 | 0.955 | 0.883 | 0.909 | 1.02
NCI-H2087 | 0.999 | 1.06 | 1.24 | 0.763 | 0.836 | 1.02 | 1.02 | 0.589 | 0.564 | 0.559 | 0.57 | 0.756 | 0.445 | 0.634 | 0.686 | 0.595 | 0.682 | 0.599 | 1.1 | 0.795
NCI-H2126 | 0.764 | 0.742 | 0.816 | 0.785 | 1.24 | 1.15 | 1.22 | 1.08 | 1.07 | 0.855 | 0.975 | 0.968 | 0.695 | 0.587 | 0.758 | 0.713 | 0.721 | 0.511 | 0.766 | 1.07
NCI-H2228 | 0.75 | 0.734 | 0.595 | 0.786 | 0.939 | 1.25 | 1.17 | 0.64 | 0.591 | 0.701 | 0.723 | 0.728 | 0.347 | 0.406 | 0.37 | 0.375 | 0.362 | 0.278 | 0.829 | 0.928
NCI-H2347 | 0.942 | 1.18 | 1.02 | 0.791 | – | 0.957 | 1.04 | 0.895 | 0.58 | 0.571 | 0.616 | 0.549 | 0.598 | 0.398 | 0.482 | 0.441 | 0.454 | 0.409 | 0.855 | 1.18
